How the values were obtained:
Type in all cases: in vivo
canola seeds = experiment: Petri dish seed germination assay, canola; settings: Salt Stress (100 mM NaCl)
Method: A series of Petri dish seed assays was conducted to evaluate the effects NPG on the seed germination rates of corn, soybean, and canola seeds subjected to cold stress, salt stress and non-stressed conditions (salt stress only for canola). Assays were performed with ten replications of ten seeds/plate (100 total seeds). NPG was applied to seeds at the specified concentrations prior to being placed in Petri plates. Seeds designated for Salt Stress Experiments 1 & 2 were placed in Petri dishes containing a 100 mM NaCl solution and incubated at 21° C.-22° C. in the dark. Cold stress Petri dishes were incubated at 15° C. in the dark. Untreated Controls were incubated at 21° C.-22° C. in the dark as were seeds utilized in the separately conducted non-stressed germination assays. Data was recorded as percent germination at designated times after plating. Statistical analyses were performed using one-way Anova and Kruskal-Wallis one-way analysis of variance on rank combined with Dunn's all pairwise multiple comparison procedure (α=0.05).

[1] = tested on: canola (Brassica napus) Pioneer hybrid 45H29; experiment: Canola field trials 2011: early growth, days to maturity, height, yield; settings: at plant maturity, averaged across three locations; NPG 10^−7 M, LCO/rhizobia at manufacturers' recommended rates
Method: Three canola (Brassica napus) field trials were conducted in the spring of 2011 to evaluate the effects of NPG on early growth, days to maturity, height and yield for Pioneer hybrid 45H29 planted at research sites near Carman, Neepawa, and Treherne (Manitoba, Canada) in 2011. Seed treatments included an Untreated Control, 10^−7 M NPG, and a mixture of a commercial LCO and rhizobia. An aqueous solution of NPG was applied at 0.25 L/100 kg seed by soaking the seeds in aqueous solutions of the respective treatments for 15 minutes followed by air drying on a tray. Untreated Control seeds were treated identically with the exception of being soaked in water without added NPG, LCO or rhizobia. The LCO/rhizobia mixture was applied to seeds at the manufacturers' recommended rates. […]
Early growth was scored on a 1-9 scale using a subjective evaluation of the ‘healthiness’ of plants and the soil surface area covered by their leaves when the plants are in the 4-6 leaf stage. […]
Days to maturity was measured from time of planting to physiological maturity, which was recorded in days from planting until the seeds in the pod, one third of the way up the main raceme, changed color to black in 50% of the plants in a given row or plot. […]
Plant height was measured at plant maturity. […]
Yield was measured in bushels per acre of mature seed. […]

Superior potatoes = experiment: Potato field trial 2011: emergence, flowering, vigor, biomass; settings: for Crop Vigor (1-5 Scale): 3=same as untreated check, 5=visually superior; for Plant Biomass: 117 DAP, above ground
Method: Seed treatments included an Untreated Control, NPG applied as a seed treatment, and NPG applied as a seed treatment followed by two foliar applications. Aqueous solutions of NPG were applied at a 10^−7 M concentration to seed pieces using a spray nozzle and left to soak on a plastic sheet for 20 min.
Foliar NPG applications were performed 36 and 45 days after planting. Plants were sprayed using a four-nozzle hollow-cone boom containing ceramic disks and CO2 propellant at a speed of 4.5 km/h and 40 psi. The 36 day application utilized a 2.0 L mix size and spray rate of 200 L/ha water volume. The 45 day application utilized a 3.0 L mix size and spray rate of 300 L/ha water volume. Seeds pieces designated for use as the Untreated Control also received the fungicide maintenance treatment.
The seed pieces were beginning to sprout when planted on June 8th in a loam composed of 34% sand, 48% silt and 18% clay and 2.9% organic matter.
Potatoes were planted at a rate of 25,000 seed pieces/ha to a depth of 20 cm and hilled using a tractor mounted potato hiller. Weeds were controlled using 3 L/ha of 40.6 wt % linuron. Insects were controlled using 250 ml/ha 18.4 wt % chlorantraniliprole and 80 g/ha 70 wt % acetamiprid insecticides. Disease was controlled using a tank mix of 1.6 kg/ha 75 wt % mancozeb M and 225 g/ha 60 wt % cymoxanil fungicides. Before harvest, plants were sprayed twice (seven days apart) with 39.5 wt % diquat dibromide herbicide at a rate of 2 L/ha. All of the products are industry standards and representative of what is used in commercial production.
The trial was conducted using a randomized complete block design with a plot size of 2 m by 8 m with a 100 cm row spacing, 30 cm plant spacing and four replications. Due to wet weather, the soil was damp and cloddy during the planting and hilling process.
Treatments were compared on a “Vigor Scale” of 1 to 5 as follows:
Potato Plant Biomass was determined at 117 DAP by harvesting five plants above ground level from each plot (Table 7).

[2] = 10^−7M seed treatment + Foliar, 20 DAP
[3] = 10^−7M seed treatment + Foliar, 28 DAP
[4] = 10^−7M seed treatment + Foliar, 40 DAP

CCCCCCC=CCCCCCCCC(=O)NC1C(OC)OC(CO)C(O)C1O [NPG, Methyl 2-deoxy-2-N-(hexadece-9,10-cis-eneoyl)-β-D-glucopyranoside]
Canola Seed Germination (canola seeds; 10^−6M, 30 HAP): 14b % | Canola Seed Germination (canola seeds; 10^−6M, 39 HAP): 67.3ab % | Canola Seed Germination (canola seeds; 10^−6M, 48 HAP): 84a % | Canola Seed Germination (canola seeds; 10^−7M, 30 HAP): 22.7ab % | Canola Seed Germination (canola seeds; 10^−7M, 39 HAP): 80.7a % | Canola Seed Germination (canola seeds; 10^−7M, 48 HAP): 88.7a % | Plant height [1]: 114.2 cm | Potato Emergence (Superior potatoes; [2]): 36a % | Crop Vigor (1-5 Scale) (Superior potatoes; [2]): 4.6b | Potato Emergence (Superior potatoes; [3]): 38a % | Crop Vigor (1-5 Scale) (Superior potatoes; [3]): 3.9a | Potato Flowering (Superior potatoes; [4]): 22b % | Crop Vigor (1-5 Scale) (Superior potatoes; [4]): 3.6a | Crop Vigor (1-5 Scale) (Superior potatoes; 10^−7M seed treatment + Foliar, 49 DAP): 4.1c | Plant Biomass (Superior potatoes; 10^−7M seed treatment + Foliar): 2.56a kg/5 Plants | Potato Emergence (Superior potatoes; 10^−7M seed treatment, 20 DAP): 30a % | Crop Vigor (1-5 Scale) (Superior potatoes; 10^−7M seed treatment, 20 DAP): 2.9a | Potato Emergence (Superior potatoes; 10^−7M seed treatment, 28 DAP): 39a % | Crop Vigor (1-5 Scale) (Superior potatoes; 10^−7M seed treatment, 28 DAP): 2.9a | Potato Flowering (Superior potatoes; 10^−7M seed treatment, 40 DAP): 0.0a % | Crop Vigor (1-5 Scale) (Superior potatoes; 10^−7M seed treatment, 40 DAP): 3.1a | Crop Vigor (1-5 Scale) (Superior potatoes; 10^−7M seed treatment, 49 DAP): 3.5b | Plant Biomass (Superior potatoes; 10^−7M seed treatment): 2.35a kg/5 Plants

Reference: US20150305333A1, “USE OF GLUCOSAMINE AMIDES AS PLANT GROWTH AND YIELD ENHANCERS” (PIONEER HI-BRED INTERNATIONAL, INC., priority 2012, published 2015)
